From patent US20200331850A1, “NOVEL SULFONAMIDE CARBOXAMIDE COMPOUNDS” (Inflazome Limited, priority 2017, published 2020)
Where a name gives a salt, the structure may show the parent alone.

Columns and labels:
NLRP3 = NLRP3 (Homo sapiens, UniProt Q96P20); assay: Human whole blood IL1β release assay (LPS + nigericin, AlphaLisa IL-1β); assay type: cell-based; parameters: Plate out 80 μl of whole blood containing 1βg/ml of LPS in 96-well, clear bottom cell culture plate; from tissue; host or cells: human whole blood from healthy donors, LPS-primed and nigericin-stimulated; conditions: NLRP3 inhibitory activity in human whole blood, IL-1β release, 10 μM nigericin, read-out: HWB IC50
NLRP3, sequence (Q96P20 whole entry): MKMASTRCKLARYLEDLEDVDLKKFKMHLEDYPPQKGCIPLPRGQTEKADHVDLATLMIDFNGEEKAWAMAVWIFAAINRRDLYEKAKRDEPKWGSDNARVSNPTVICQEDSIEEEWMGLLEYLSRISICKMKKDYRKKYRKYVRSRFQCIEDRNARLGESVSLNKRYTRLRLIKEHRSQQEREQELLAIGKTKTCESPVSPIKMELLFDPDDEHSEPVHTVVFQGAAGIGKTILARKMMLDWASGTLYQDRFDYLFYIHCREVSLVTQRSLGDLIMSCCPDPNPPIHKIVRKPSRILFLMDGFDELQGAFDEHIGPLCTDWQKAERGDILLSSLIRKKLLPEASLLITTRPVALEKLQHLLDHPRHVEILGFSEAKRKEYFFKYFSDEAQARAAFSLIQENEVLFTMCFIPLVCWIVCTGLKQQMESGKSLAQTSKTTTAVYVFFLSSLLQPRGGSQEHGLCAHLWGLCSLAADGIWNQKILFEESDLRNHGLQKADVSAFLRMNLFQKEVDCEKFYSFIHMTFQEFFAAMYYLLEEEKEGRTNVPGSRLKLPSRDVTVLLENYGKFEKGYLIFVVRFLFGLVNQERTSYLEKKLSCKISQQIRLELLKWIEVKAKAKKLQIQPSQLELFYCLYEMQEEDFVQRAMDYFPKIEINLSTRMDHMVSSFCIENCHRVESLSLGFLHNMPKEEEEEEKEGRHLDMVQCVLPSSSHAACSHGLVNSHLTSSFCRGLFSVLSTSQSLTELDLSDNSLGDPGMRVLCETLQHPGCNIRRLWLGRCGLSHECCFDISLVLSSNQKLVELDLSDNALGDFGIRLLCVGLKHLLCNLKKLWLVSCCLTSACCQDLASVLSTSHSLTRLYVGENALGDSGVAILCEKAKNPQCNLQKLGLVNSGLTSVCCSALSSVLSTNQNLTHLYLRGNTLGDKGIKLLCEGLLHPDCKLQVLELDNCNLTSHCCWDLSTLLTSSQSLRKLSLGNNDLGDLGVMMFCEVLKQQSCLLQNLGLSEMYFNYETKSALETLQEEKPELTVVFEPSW

[1] = PK protocol: pharmacokinetic parameters in male Sprague Dawley rats (intravenous or oral); assay type: in vivo; conditions: plasma, rat; for Vd: read-out: Vdss
Experimental: Pharmacokinetic parameters were determined in male Sprague Dawley rats (Charles River, UK, 250-350 g; or Vital River Laboratory Animal Technology Co Ltd, Beijing, China, 7-9 weeks old). Animals were individually housed during the study and maintained under a 12 h light/dark cycle.
For intravenous administration, compounds were formulated as a solution in water or DMSO:PBS [10:90] in 2 mL/kg dosing volume and administered via tail vein. For oral administration, compounds were formulated as a solution in DMSO:water [10:90] in 5 mL/kg dosing volume and administered orally.
Serial blood samples (about 120-300 μL) were taken from each animal at each of 8 time-points post dose (0.083, 0.25, 0.5, 1, 2, 4, 8 and 24 h) or at each of 12 time-points post dose (0.03, 0.1, 0.17, 0.25, 0.5, 1, 2, 4, 6, 8, 12 and 24 h) or pre-dose and at each of 9 time-points post dose (0.25, 0.5, 1, 2, 4, 6, 8, 12 and 24 h). Samples were held on ice for no longer than 30 minutes before centrifugation (10,000 rpm (8,385 g) for 3 minutes; or 5,696 rpm (3,000 g) for 15 minutes) for plasma generation. Plasma was frozen on dry ice prior to bioanalysis. PK parameters were generated from LC-MS/MS data using Dotmatics or Phoenix WinNonlin 6.3 software.

[2] = intravenous administration, 1 mg/kg

Row | IC50 (NLRP3) | AUC [1, 2] | clearance [1, 2] | half-life [1, 2] | Vd [1, 2] | AUC ([1]; oral administration, 3 mg/kg) | CL/F ([1]; oral administration, 3 mg/kg) | Cmax ([1]; oral administration, 3 mg/kg) | Tmax ([1]; oral administration, 3 mg/kg) | bioavailability ([1]; oral administration, 3 mg/kg) | half-life ([1]; oral administration, 3 mg/kg) | Compound
1 | ≤ 1 µM | 591 ng·h/mL | 28.2 mL/min/kg | 0.9 h | 0.55 L/kg |  |  |  |  |  |  | CCN(CC)CCCS(=O)(=O)NC(=O)Nc1c(-c2cccnc2)cc(F)cc1C(C)C [Example 37, 3-(Diethylamino)-N-((4-fluoro-2-isopropyl-6-(pyridin-3-yl)phenyl)carbamoyl)propane-1-sulfonamide]
2 | ≤ 1 µM | 1180 ng·h/mL | 14.2 mL/min/kg | 1.5 h | 0.79 L/kg | 2270 ng·h/mL | 22.6 mL/min/kg | 819 ng/mL | 0.42 h | 64.1% | 1.8 h | CCN(CC)CCCS(=O)(=O)NC(=O)Nc1c2c(cc3c1CCC3)CCC2 [Example 3, 3-(Diethylamino)-N-((1,2,3,5,6,7-hexahydro-s-indacen-4-yl)carbamoyl)propane-1-sulfonamide, potassium salt]
3 | ≤ 1 µM | 2780 ng·h/mL | 6 mL/min/kg | 1.3 h | 0.53 L/kg |  |  |  |  |  |  | O=C(Nc1c2c(cc3c1CCC3)CCC2)NS(=O)(=O)CCN1CCC1 [Example 29, 2-(Azetidin-1-yl)-N-((1,2,3,5,6,7-hexahydro-s-indacen-4-yl)carbamoyl)ethane-1-sulfonamide, Potassium Salt]
4 | ≤ 1 µM | 2350 ng·h/mL | 7.1 mL/min/kg | 1.1 h | 0.49 L/kg |  |  |  |  |  |  | CN(C)CCCS(=O)(=O)NC(=O)Nc1c2c(cc3c1CCC3)CCC2 [Example 8, 3-(Dimethylamino)-N-((1,2,3,5,6,7-hexahydro-s-indacen-4-yl)carbamoyl)propane-1-sulfonamide, potassium salt]
